Reference: ChEMBL document CHEMBL4507302, “Data for DCP probe TP-020” (2021)

Columns and labels:
[1] = system: Tyrosine-protein kinase ABL1 (Homo sapiens), P00519 [E255K]; details: Compound concentration 1000.0 nM
[2] = target: RAC-beta serine/threonine-protein kinase (Homo sapiens) (UniProt P31751); details: Compound concentration 1000.0 nM
[3] = target: Mitogen-activated protein kinase kinase kinase 5 (Homo sapiens) (UniProt Q99683); details: Compound concentration 1000.0 nM
[4] = target: Tyrosine-protein kinase Blk (Homo sapiens) (UniProt P51451); details: Compound concentration 1000.0 nM
[5] = target: Calcium/calmodulin-dependent protein kinase type 1 (Homo sapiens) (UniProt Q14012); details: Compound concentration 1000.0 nM
[6] = target: Calcium/calmodulin-dependent protein kinase kinase 1 (Homo sapiens) (UniProt Q8N5S9); details: Compound concentration 1000.0 nM
[7] = target: Cyclin-dependent kinase-like 2 (Homo sapiens) (UniProt Q92772); details: Compound concentration 1000.0 nM
[8] = target: Cyclin-dependent kinase-like 3 (Homo sapiens) (UniProt Q8IVW4); details: Compound concentration 1000.0 nM
[9] = target: Serine/threonine-protein kinase Chk1 (Homo sapiens) (UniProt O14757); details: Compound concentration 1000.0 nM
[10] = system: Epidermal growth factor receptor (Homo sapiens), P00533 [UNDEFINED MUTATION]; details: Compound concentration 1000.0 nM
Epidermal growth factor receptor (Homo sapiens), P00533 [UNDEFINED MUTATION], sequence (P00533 whole entry, looked up, change not shown): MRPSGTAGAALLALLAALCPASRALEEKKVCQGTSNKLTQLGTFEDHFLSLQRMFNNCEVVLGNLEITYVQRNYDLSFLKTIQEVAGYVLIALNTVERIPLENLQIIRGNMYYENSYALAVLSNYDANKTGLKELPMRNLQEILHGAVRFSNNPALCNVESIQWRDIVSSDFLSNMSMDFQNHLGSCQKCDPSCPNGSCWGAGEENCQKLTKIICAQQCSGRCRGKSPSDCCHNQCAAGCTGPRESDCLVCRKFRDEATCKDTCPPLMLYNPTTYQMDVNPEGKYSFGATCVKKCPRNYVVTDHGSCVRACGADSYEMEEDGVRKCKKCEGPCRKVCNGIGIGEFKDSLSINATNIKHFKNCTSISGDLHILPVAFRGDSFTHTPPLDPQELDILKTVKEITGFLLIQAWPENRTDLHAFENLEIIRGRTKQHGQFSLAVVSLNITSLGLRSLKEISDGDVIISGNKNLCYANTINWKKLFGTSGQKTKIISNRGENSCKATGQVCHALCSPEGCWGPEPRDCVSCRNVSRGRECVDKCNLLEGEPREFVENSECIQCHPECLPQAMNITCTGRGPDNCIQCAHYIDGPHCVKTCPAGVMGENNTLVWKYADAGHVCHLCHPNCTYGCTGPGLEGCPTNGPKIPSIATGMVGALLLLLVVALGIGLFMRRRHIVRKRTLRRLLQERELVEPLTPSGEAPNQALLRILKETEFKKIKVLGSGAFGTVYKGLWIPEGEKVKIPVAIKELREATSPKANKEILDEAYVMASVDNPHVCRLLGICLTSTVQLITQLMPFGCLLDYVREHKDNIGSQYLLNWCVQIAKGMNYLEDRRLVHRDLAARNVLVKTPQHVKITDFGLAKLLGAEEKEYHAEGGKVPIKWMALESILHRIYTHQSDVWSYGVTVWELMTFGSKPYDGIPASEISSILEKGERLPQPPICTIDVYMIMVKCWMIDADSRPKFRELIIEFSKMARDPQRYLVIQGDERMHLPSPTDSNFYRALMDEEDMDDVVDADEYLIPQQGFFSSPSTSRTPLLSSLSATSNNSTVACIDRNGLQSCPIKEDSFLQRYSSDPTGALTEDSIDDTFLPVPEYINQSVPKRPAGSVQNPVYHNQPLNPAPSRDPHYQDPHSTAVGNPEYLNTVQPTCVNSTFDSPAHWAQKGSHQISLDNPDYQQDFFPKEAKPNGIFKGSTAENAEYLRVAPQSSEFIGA

[11] = target: Ephrin type-A receptor 3 (Homo sapiens) (UniProt P29320); details: Compound concentration 1000.0 nM
[12] = target: Receptor tyrosine-protein kinase erbB-4 (Homo sapiens) (UniProt Q15303); details: Compound concentration 1000.0 nM
[13] = target: Fibroblast growth factor receptor 4 (Homo sapiens) (UniProt P22455); details: Compound concentration 1000.0 nM
[14] = target: Glycogen synthase kinase-3 alpha (Homo sapiens) (UniProt P49840); details: Compound concentration 1000.0 nM
[15] = target: Tyrosine-protein kinase HCK (Homo sapiens) (UniProt P08631); details: Compound concentration 1000.0 nM
[16] = target: Homeodomain-interacting protein kinase 4 (Homo sapiens) (UniProt Q8NE63); details: Compound concentration 1000.0 nM
[17] = target: Inhibitor of nuclear factor kappa-B kinase subunit alpha (Homo sapiens) (UniProt O15111); details: Compound concentration 1000.0 nM
[18] = target: Interleukin-1 receptor-associated kinase 3 (Homo sapiens) (UniProt Q9Y616); details: Compound concentration 1000.0 nM
Interleukin-1 receptor-associated kinase 3 (Homo sapiens), sequence (Q9Y616 whole entry): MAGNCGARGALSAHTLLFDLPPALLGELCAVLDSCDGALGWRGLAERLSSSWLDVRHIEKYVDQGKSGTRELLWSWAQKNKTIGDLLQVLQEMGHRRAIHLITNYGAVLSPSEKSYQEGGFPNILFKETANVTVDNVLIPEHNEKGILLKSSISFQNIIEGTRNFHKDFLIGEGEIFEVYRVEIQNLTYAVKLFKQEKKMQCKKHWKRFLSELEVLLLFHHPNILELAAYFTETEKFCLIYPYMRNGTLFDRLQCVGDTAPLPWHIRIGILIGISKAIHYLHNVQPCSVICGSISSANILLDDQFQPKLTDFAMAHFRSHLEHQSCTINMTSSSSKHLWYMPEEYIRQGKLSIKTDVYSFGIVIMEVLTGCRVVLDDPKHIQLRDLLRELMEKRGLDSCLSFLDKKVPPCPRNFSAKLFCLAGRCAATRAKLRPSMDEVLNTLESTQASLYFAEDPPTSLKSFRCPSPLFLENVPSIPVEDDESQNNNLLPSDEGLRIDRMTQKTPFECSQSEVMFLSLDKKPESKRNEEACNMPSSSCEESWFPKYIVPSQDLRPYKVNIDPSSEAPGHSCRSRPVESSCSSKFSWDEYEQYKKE

[19] = target: Tyrosine-protein kinase JAK2 (Homo sapiens) (UniProt O60674); details: Compound concentration 1000.0 nM
[20] = target: Mitogen-activated protein kinase 9 (Homo sapiens) (UniProt P45984); details: Compound concentration 1000.0 nM
[21] = system: Mast/stem cell growth factor receptor Kit (Homo sapiens), P10721 [V559D]; details: Compound concentration 1000.0 nM
[22] = target: Dual specificity mitogen-activated protein kinase kinase 6 (Homo sapiens) (UniProt P52564); details: Compound concentration 1000.0 nM
[23] = target: MAP kinase-interacting serine/threonine-protein kinase 2 (Homo sapiens) (UniProt Q9HBH9); details: Compound concentration 1000.0 nM
[24] = target: Myosin light chain kinase (Homo sapiens) (UniProt Q32MK0); details: Compound concentration 1000.0 nM
Myosin light chain kinase (Homo sapiens), sequence (Q32MK0 whole entry): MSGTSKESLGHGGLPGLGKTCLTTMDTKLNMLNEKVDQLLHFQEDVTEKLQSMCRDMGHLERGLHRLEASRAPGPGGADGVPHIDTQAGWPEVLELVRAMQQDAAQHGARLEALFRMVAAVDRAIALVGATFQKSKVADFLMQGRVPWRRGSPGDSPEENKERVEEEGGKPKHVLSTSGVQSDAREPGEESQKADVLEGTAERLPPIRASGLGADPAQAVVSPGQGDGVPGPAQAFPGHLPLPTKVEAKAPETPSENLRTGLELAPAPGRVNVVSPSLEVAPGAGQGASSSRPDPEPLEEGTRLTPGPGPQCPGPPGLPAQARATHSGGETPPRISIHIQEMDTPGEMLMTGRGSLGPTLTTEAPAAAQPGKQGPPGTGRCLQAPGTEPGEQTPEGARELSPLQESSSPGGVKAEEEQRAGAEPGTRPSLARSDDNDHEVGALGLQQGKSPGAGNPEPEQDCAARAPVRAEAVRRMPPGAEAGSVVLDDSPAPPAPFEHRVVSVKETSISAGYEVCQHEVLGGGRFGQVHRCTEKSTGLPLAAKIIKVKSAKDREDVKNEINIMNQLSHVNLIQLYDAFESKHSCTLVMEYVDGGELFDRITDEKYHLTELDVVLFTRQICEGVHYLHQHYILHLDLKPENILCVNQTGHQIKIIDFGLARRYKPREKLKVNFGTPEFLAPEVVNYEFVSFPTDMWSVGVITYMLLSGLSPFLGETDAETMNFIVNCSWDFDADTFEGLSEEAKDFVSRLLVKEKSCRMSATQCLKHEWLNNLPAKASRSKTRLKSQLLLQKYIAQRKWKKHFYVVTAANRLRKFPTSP

[25] = target: Mitogen-activated protein kinase kinase kinase 10 (Homo sapiens) (UniProt Q02779); details: Compound concentration 1000.0 nM
[26] = target: Serine/threonine-protein kinase MRCK beta (Homo sapiens) (UniProt Q9Y5S2); details: Compound concentration 1000.0 nM
[27] = target: Myosin-IIIb (Homo sapiens) (UniProt Q8WXR4); details: Compound concentration 1000.0 nM
[28] = target: Serine/threonine-protein kinase 38 (Homo sapiens) (UniProt Q15208); details: Compound concentration 1000.0 nM
[29] = target: Mitogen-activated protein kinase 11 (Homo sapiens) (UniProt Q15759); details: Compound concentration 1000.0 nM
[30] = target: Mitogen-activated protein kinase 12 (Homo sapiens) (UniProt P53778); details: Compound concentration 1000.0 nM
[31] = target: Cyclin-dependent kinase 18 (Homo sapiens) (UniProt Q07002); details: Compound concentration 1000.0 nM
[32] = target: Calcium-dependent protein kinase 1 (Plasmodium falciparum) (UniProt P62344); details: Compound concentration 1000.0 nM
[33] = system: Phosphatidylinositol 4,5-bisphosphate 3-kinase catalytic subunit alpha isoform (Homo sapiens), P42336 [E542K]; details: Compound concentration 1000.0 nM
[34] = system: Phosphatidylinositol 4,5-bisphosphate 3-kinase catalytic subunit alpha isoform (Homo sapiens), P42336 [E545A]; details: Compound concentration 1000.0 nM
[35] = system: Phosphatidylinositol 4,5-bisphosphate 3-kinase catalytic subunit alpha isoform (Homo sapiens), P42336 [E545K]; details: Compound concentration 1000.0 nM
[36] = target: cAMP-dependent protein kinase catalytic subunit beta (Homo sapiens) (UniProt P22694); details: Compound concentration 1000.0 nM
[37] = target: Serine/threonine-protein kinase N1 (Homo sapiens) (UniProt Q16512); details: Compound concentration 1000.0 nM
[38] = target: Ribosomal protein S6 kinase alpha-1 (Homo sapiens) (UniProt Q15418); details: Compound concentration 1000.0 nM
[39] = target: Ribosomal protein S6 kinase alpha-6 (Homo sapiens) (UniProt Q9UK32); details: Compound concentration 1000.0 nM
[40] = target: STE20-like serine/threonine-protein kinase (Homo sapiens) (UniProt Q9H2G2); details: Compound concentration 1000.0 nM
[41] = target: Phosphatidylinositol 3-kinase catalytic subunit type 3 (Homo sapiens) (UniProt Q8NEB9); details: Compound concentration 1000.0 nM
[42] = target: Serine/threonine-protein kinase WNK2 (Homo sapiens) (UniProt Q9Y3S1); details: Compound concentration 1000.0 nM
Serine/threonine-protein kinase WNK2 (Homo sapiens), sequence (Q9Y3S1 whole entry): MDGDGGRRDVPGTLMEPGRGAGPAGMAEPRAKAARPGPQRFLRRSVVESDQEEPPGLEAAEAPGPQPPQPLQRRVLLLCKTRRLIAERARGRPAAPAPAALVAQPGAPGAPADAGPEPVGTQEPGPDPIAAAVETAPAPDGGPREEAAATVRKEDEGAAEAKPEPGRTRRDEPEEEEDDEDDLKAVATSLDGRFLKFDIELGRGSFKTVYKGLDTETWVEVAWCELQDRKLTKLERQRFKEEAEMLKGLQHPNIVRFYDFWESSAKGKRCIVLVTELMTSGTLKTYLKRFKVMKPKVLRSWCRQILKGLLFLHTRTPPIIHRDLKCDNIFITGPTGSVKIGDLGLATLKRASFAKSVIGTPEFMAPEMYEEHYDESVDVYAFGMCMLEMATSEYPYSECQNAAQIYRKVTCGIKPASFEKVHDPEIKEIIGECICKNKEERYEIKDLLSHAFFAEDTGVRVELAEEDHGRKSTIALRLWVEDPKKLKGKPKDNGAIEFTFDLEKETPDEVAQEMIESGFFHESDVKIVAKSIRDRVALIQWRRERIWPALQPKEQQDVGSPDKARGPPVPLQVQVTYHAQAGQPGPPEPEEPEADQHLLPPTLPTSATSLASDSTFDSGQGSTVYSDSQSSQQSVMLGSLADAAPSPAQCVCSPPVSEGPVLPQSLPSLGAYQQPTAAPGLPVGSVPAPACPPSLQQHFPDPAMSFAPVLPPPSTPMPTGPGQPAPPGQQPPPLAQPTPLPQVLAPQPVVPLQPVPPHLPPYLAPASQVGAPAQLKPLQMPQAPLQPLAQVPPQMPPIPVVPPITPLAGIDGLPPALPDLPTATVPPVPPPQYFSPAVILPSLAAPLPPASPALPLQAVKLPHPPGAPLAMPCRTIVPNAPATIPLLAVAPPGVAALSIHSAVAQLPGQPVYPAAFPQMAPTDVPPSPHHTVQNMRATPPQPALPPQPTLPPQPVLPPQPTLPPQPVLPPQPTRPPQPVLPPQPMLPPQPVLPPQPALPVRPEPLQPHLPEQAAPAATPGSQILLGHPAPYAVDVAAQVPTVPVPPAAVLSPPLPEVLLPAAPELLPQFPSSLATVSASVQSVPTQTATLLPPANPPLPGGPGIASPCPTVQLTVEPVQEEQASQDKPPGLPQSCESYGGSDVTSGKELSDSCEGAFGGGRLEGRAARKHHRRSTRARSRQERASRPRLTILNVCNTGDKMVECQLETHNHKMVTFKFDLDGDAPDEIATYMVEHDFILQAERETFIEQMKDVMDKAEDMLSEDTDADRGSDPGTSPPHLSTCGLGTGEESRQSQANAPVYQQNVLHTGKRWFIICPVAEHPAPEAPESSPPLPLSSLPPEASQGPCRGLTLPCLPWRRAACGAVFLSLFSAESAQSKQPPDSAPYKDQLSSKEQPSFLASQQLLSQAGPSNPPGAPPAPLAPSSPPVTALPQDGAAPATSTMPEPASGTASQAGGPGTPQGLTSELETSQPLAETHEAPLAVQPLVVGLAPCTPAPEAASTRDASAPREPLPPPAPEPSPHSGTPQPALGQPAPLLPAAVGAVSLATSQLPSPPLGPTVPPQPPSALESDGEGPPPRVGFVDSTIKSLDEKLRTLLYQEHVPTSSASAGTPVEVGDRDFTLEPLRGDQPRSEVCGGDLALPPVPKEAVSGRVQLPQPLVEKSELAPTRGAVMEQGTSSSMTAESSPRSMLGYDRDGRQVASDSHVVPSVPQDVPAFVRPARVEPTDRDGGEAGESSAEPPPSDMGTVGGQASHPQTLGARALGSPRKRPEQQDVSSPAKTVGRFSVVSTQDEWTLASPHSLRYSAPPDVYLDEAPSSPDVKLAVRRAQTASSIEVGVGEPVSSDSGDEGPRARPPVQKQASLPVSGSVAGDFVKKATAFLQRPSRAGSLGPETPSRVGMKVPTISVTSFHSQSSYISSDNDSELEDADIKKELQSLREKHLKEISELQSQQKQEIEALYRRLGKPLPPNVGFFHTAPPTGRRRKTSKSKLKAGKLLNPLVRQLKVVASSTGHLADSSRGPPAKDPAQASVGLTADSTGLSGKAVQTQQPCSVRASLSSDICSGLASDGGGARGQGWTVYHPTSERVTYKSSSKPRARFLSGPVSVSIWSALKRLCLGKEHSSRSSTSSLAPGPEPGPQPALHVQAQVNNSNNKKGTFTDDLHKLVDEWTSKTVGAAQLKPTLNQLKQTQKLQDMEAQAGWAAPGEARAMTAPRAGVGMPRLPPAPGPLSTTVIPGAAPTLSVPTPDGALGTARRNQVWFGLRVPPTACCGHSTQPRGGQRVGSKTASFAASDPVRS

[43] = target: Serine/threonine-protein kinase WNK3 (Homo sapiens) (UniProt Q9BYP7); details: Compound concentration 1000.0 nM
[44] = target: D(1A) dopamine receptor (Homo sapiens) (UniProt P21728); details: Compound concentration 10.0 uM
[45] = target: Sodium-dependent serotonin transporter (Homo sapiens) (UniProt P31645); details: Compound concentration 10.0 uM

Nc1cnc(N2CCc3cc(S(=O)(=O)Nc4c(F)cc(Cl)cc4F)cc(N4CCCC4=O)c32)nc1
inactive: residual activity [1] 85% | residual activity [2] 100% | residual activity [3] 83% | residual activity [4] 100% | residual activity [5] 88% | residual activity [6] 100% | residual activity [7] 85% | residual activity [8] 100% | residual activity [9] 95% | residual activity [10] 100% | residual activity [11] 78% | residual activity [12] 100% | residual activity [13] 100% | residual activity [14] 100% | residual activity [15] 100% | residual activity [16] 100% | residual activity [17] 100% | residual activity [18] 89% | residual activity [19] 100% | residual activity [20] 84% | residual activity [21] 100% | residual activity [22] 71% | residual activity [23] 100% | residual activity [24] 100% | residual activity [25] 75% | residual activity [26] 95% | residual activity [27] 100% | residual activity [28] 99% | residual activity [29] 100% | residual activity [30] 100% | residual activity [31] 100% | residual activity [32] 97% | residual activity [33] 72% | residual activity [34] 100% | residual activity [35] 100% | residual activity [36] 100% | residual activity [37] 95% | residual activity [38] 93% | residual activity [39] 100% | residual activity [40] 100% | residual activity [41] 100% | residual activity [42] 100% | residual activity [43] 100% | inhibition [44] -8.35% | inhibition [45] 9.34%

Cn1nc(C(F)(F)F)cc1-c1cnc(N2CCc3cc(S(=O)(=O)Nc4c(F)cc(Cl)cc4F)cc(N4CCCC4=O)c32)nc1 [TP-020]
inactive: residual activity [1] 89% | residual activity [2] 100% | residual activity [3] 100% | residual activity [4] 100% | residual activity [5] 95% | residual activity [6] 98% | residual activity [7] 100% | residual activity [8] 100% | residual activity [9] 100% | residual activity [10] 100% | residual activity [11] 94% | residual activity [12] 94% | residual activity [13] 69% | residual activity [14] 95% | residual activity [15] 95% | residual activity [16] 100% | residual activity [17] 99% | residual activity [18] 100% | residual activity [19] 82% | residual activity [20] 95% | residual activity [21] 99% | residual activity [22] 100% | residual activity [23] 94% | residual activity [24] 84% | residual activity [25] 93% | residual activity [26] 94% | residual activity [27] 100% | residual activity [28] 97% | residual activity [29] 100% | residual activity [30] 83% | residual activity [31] 100% | residual activity [32] 70% | residual activity [33] 85% | residual activity [34] 84% | residual activity [35] 82% | residual activity [36] 81% | residual activity [37] 100% | residual activity [38] 99% | residual activity [39] 84% | residual activity [40] 100% | residual activity [41] 78% | residual activity [42] 81% | residual activity [43] 97% | inhibition [44] -6.95% | inhibition [45] 0.95%
